Here are results for 23 compounds from paper PMC9225722, “Synthesis and biological evaluation of thieno[3,2-c]pyrazol-3-amine derivatives as potent glycogen synthase kinase 3β inhibitors for Alzheimer’s disease” (Journal of Enzyme Inhibition and Medicinal Chemistry, 2022).

For one series, the target named is GSK-3β (Homo sapiens, UniProt P49841). The series can be described thus: GSK-3β kinase assay (calliper mobility shift assay). In kind it is biochemical. The following applies: for IC50: mean ± SD from two separate experiments, calliper mobility shift assay; for fold less active than 16b (GSK-3β inhibition): compared with 16b.
In series [1] the test system is phosphorylation of GSK-3β at Ser9. The series can be described thus: Western blot of p-GSK-3β (Ser9) in SH-SY5Y cells. It counts as cell-based, human. The following applies: LiCl positive control, concentration not given; 2.5 h; control 0.33. An excerpt: GSK-3β is activated by phosphorylation at Tyr216 and is inhibited by phosphorylation at Ser9 [48]. As one of the substrates of Akt (protein kinase B), GSK-3 can inhibit Akt[49]. The inhibition of GSK-3β increases the p-Akt expression and activates the PI3K/Akt pathway, and that, in turn, phosphorylates the GSK-3β at the Ser9 site[50]^,[51]. […] As shown in Figure 6(A), LiCl greatly promoted GSK-3β phosphorylation at Ser9 (p-GSK-3β/GAPDH: 0.60 vs 0.33). […] Therefore, in cellular level, compound 16b was confirmed to have a direct effect on GSK-3β.
Figure 6. (A) The effect of 16b on phosphorylation of GSK-3β at Ser9; (B) the effect of 16b on β-catenin abundance. Protein expressions were detected by immunoblot analysis with a specific antibody. Values are reported as the mean ± SD of three independent experiments. *p < 0.05, **p < 0.01, ***p < 0.001 vs control.
SH-SY5Y cells (1 × 10^6) were seeded in 12-well plates (Corning, Los Altos, MA, USA) and incubated with compound 16b or LiCl at the indicated concentrations for 2.5 h at 37 °C in 5% CO2. At the end of incubation, cells were lysed by addition of ice-cold RIPA buffer containing a protease inhibitor cocktail. The protein quantification was determined using a BCA protein assay kit (Jiangsu KeyGEN BioTECH Co., Ltd., Nanjing, China). Cellular lysates were mixed with an equal volume of SDS (sodium dodecyl sulfate) loading buffer (Jiangsu KeyGEN BioTECH Co., Ltd., Nanjing, China) and separated by electrophoresis (Bio-rad Power Supplies Basic, Shanghai, China) in polyacrylamide gel. Proteins were transferred from acrylamide gels to nitrocellulose membranes and blocked in a blocking buffer (PBS, 5% non-fat milk) for 1.5 to 2 h at 20 °C. […] The blots were washed by TBST for 20 min and detected with ECL chemiluminescent reagent (Jiangsu KeyGEN BioTECH Co., Ltd., Nanjing, China) for 3 min. Pixel intensity was quantitated using gel imaging system (SYNGENE G:BOX/iChemi XR5, ISS, San Diego, CA, US) and Gel-Pro32 software (Media Cybernetics, Bethesda, MD, USA). […]
A general note: In western blotting, separated proteins are transferred to a membrane and probed.

GSK-3β, sequence (P49841 whole entry): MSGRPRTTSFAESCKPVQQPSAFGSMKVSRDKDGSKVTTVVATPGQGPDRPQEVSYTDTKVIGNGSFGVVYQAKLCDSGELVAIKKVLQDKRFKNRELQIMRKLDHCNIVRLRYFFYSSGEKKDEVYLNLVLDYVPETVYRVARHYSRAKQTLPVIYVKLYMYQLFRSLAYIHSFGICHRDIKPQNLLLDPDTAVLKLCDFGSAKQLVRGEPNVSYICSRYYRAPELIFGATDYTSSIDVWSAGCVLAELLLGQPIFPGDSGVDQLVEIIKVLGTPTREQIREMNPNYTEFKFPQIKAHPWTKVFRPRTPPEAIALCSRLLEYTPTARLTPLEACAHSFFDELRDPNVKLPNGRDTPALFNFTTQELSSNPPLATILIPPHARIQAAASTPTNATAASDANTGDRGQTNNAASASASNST

As usually defined, the melting point is the temperature of the solid-liquid transition. A word on the IC50: it is the concentration that gives 50% inhibition. For the compound `CCCS(=O)(=O)Nc1n[nH]c2cc(-c3cncc(-c4ccccc4)c3)sc12` [Compound 17d, N-(5-(5-Phenylpyridin-3-yl)-1H-thieno[3,2-c]pyrazol-3-yl)propane-1-sulphonamide], the melting point fell in the range of 112 to 114 °C. At GSK-3β, the “GSK-3β inhibitory activity (in words)” value is recorded as “not active” and the IC50 is > 5000 nM.

For `Cc1ccc(-c2ccncc2-c2cc3[nH]nc(NC(=O)C(C)C)c3s2)cc1` [Compound 18d, N-(5-(4-(4-Methylphenyl)pyridin-3-yl)-1H-thieno[3,2-c]pyrazol-3-yl)isobutyramide], the melting point was in the range of 239 to 240 °C. Also, the IC50 on GSK-3β was 99 ± 4.8 nM.

Turning to `CC(C)C(=O)Nc1n[nH]c2cc(-c3cnccc3-c3ccc4ccccc4c3)sc12` [Compound 18n, N-(5-(4-(naphthalen-2-yl)pyridin-3-yl)-1H-thieno[3,2-c]pyrazol-3-yl)isobutyramide], the melting point was > 240 °C. In addition, on GSK-3β (compared with 18a), the “fold less active than 18a (GSK-3β inhibition)” value was “about 2 fold”. Moreover, the IC50 at GSK-3β was determined as 195 ± 10.4 nM.

With `COc1ccc(-c2ccncc2-c2cc3[nH]nc(NC(=O)C(C)C)c3s2)cc1` [Compound 18g, N-(5-(4-(4-Methoxyphenyl)pyridin-3-yl)-1H-thieno[3,2-c]pyrazol-3-yl)isobutyramide], the melting point is > 240 °C. Moreover, on GSK-3β, the half-maximal inhibitory concentration (IC50) came to 105 ± 5.2 nM.

In turn, `CC(C)C(=O)Nc1n[nH]c2cc(-c3cnccc3-c3cccc(C(F)(F)F)c3)sc12` [Compound 18k, N-(5-(4-(3-(trifluoromethyl)phenyl)pyridin-3-yl)-1H-thieno[3,2-c]pyrazol-3-yl)isobutyramide] yielded a melting point of 202 to 204 °C. For the same compound, the IC50 on GSK-3β is 107 ± 6.1 nM.

Take `CC(C)C(=O)Nc1n[nH]c2cc(-c3cncc(-c4ccccc4)c3)sc12` [Compound 17b, N-(5-(5-Phenylpyridin-3-yl)-1H-thieno[3,2-c]pyrazol-3-yl)isobutyramide]: the melting point is > 240 °C. Further, at GSK-3β, the “fold less active than 16b (GSK-3β inhibition)” value was “about 4 fold” and the IC50 came out at 14 ± 0.6 nM.

In the case of `CC(C)C(=O)Nc1n[nH]c2cc(-c3cnccc3-c3ccccc3)sc12` [Compound 18a, N-(5-(4-Phenylpyridin-3-yl)-1H-thieno[3,2-c]pyrazol-3-yl)isobutyramide], the melting point is > 240 °C. Also, the IC50 at GSK-3β came to 84 ± 3.2 nM.

Take `CCCC(=O)Nc1n[nH]c2cc(-c3cccnc3)sc12` [Compound 16c, N-(5-(pyridin-3-yl)-1H-thieno[3,2-c]pyrazol-3-yl)butyramide]: the melting point was 238 to 240 °C. On GSK-3β, the “fold less active than 16b (GSK-3β inhibition)” value is “about 10 fold” and the IC50 amounted to 36 ± 1.7 nM.

As for `CC(C)C(=O)Nc1n[nH]c2cc(-c3cnccc3-c3ccc(F)cc3)sc12` [Compound 18j, N-(5-(4-(4-Fluorophenyl)pyridin-3-yl)-1H-thieno[3,2-c]pyrazol-3-yl)isobutyramide], the melting point is > 240 °C. The IC50 on GSK-3β is 15 ± 0.3 nM.

`O=C(Nc1n[nH]c2cc(-c3cccnc3)sc12)C1CC1` [Compound 16a, N-(5-(pyridin-3-yl)-1H-thieno[3,2-c]pyrazol-3-yl)cyclopropanecarboxamide] gave a melting point of 224 to 226 °C. Further, at GSK-3β, the half-maximal inhibitory concentration (IC50) stood at 4.4 ± 0.2 nM.

Regarding `O=C(Nc1n[nH]c2cc(-c3cncc(-c4ccccc4)c3)sc12)C1CC1` [Compound 17a, N-(5-(5-Phenylpyridin-3-yl)-1H-thieno[3,2-c]pyrazol-3-yl)cyclopropanecarboxamide], the melting point is > 240 °C. For the same compound, at GSK-3β (compared with 16a), the “fold less active than 16a (GSK-3β inhibition)” value is recorded as “about 4 fold”. Moreover, on GSK-3β, the IC50 turned out to be 20 ± 1.1 nM.

For the compound `CCCC(=O)Nc1n[nH]c2cc(-c3cncc(-c4ccccc4)c3)sc12` [Compound 17c, N-(5-(5-Phenylpyridin-3-yl)-1H-thieno[3,2-c]pyrazol-3-yl)butyramide], the melting point is > 240 °C. In addition, the IC50 on GSK-3β turned out to be 37 ± 1.3 nM.

With `Cc1ccccc1-c1ccncc1-c1cc2[nH]nc(NC(=O)C(C)C)c2s1` [Compound 18b, N-(5-(4-(2-Methylphenyl)pyridin-3-yl)-1H-thieno[3,2-c]pyrazol-3-yl)isobutyramide], the melting point was > 240 °C. At GSK-3β, the IC50 turned out to be 64 ± 2.3 nM.

Regarding `CC(C)C(=O)Nc1n[nH]c2cc(-c3cnccc3-c3cccc(F)c3)sc12` [Compound 18i, N-(5-(4-(3-Fluorophenyl)pyridin-3-yl)-1H-thieno[3,2-c]pyrazol-3-yl)isobutyramide], the melting point was > 240 °C. For the same compound, the IC50 at GSK-3β was found to be 173 ± 6.8 nM.

`CCCS(=O)(=O)Nc1n[nH]c2cc(-c3cccnc3)sc12` [Compound 16d, N-(5-(pyridin-3-yl)-1H-thieno[3,2-c]pyrazol-3-yl)propane-1-sulphonamide]: the melting point lay within 208 to 210 °C. At GSK-3β, the “GSK-3β inhibitory activity (in words)” value was “very weak” and the IC50 was 1390 ± 55.2 nM.

In the case of `O=C(Nc1n[nH]c2cc(-c3cccnc3)sc12)c1ccccc1` [Compound 16e, N-(5-(pyridin-3-yl)-1H-thieno[3,2-c]pyrazol-3-yl)benzamide], the melting point was > 240 °C. Moreover, at GSK-3β, the “fold less active than 16b (GSK-3β inhibition)” value is listed as “about 10 fold” and the IC50 is 33 ± 1.6 nM.

With `CC(C)C(=O)Nc1n[nH]c2cc(-c3cnccc3-c3ccccc3F)sc12` [Compound 18h, N-(5-(4-(2-Fluorophenyl)pyridin-3-yl)-1H-thieno[3,2-c]pyrazol-3-yl)isobutyramide], the melting point was > 240 °C. Besides, the IC50 on GSK-3β came out at 94 ± 3.5 nM.

`Cc1cccc(-c2ccncc2-c2cc3[nH]nc(NC(=O)C(C)C)c3s2)c1` [Compound 18c, N-(5-(4-(3-Methylphenyl)pyridin-3-yl)-1H-thieno[3,2-c]pyrazol-3-yl)isobutyramide] displayed a melting point of 236 to 238 °C. Also, the IC50 at GSK-3β came out at 153 ± 6.6 nM.

`COc1cccc(-c2ccncc2-c2cc3[nH]nc(NC(=O)C(C)C)c3s2)c1` [Compound 18f, N-(5-(4-(3-Methoxyphenyl)pyridin-3-yl)-1H-thieno[3,2-c]pyrazol-3-yl)isobutyramide] came in with a melting point of 212 to 214 °C. In addition, the IC50 at GSK-3β is 113 ± 8.6 nM.

With `CC(C)C(=O)Nc1n[nH]c2cc(-c3cnccc3-c3ccc(-c4ccccc4)cc3)sc12` [Compound 18m, N-(5-(4-([1,1'-Biphenyl]-4-yl)pyridin-3-yl)-1H-thieno[3,2-c]pyrazol-3-yl)isobutyramide], the melting point is 159 to 161 °C. In addition, at GSK-3β, the IC50 turned out to be 387 ± 21.2 nM.

In the case of `CC(C)C(=O)Nc1n[nH]c2cc(-c3cnccc3-c3ccc(C(F)(F)F)cc3)sc12` [Compound 18l, N-(5-(4-(4-(trifluoromethyl)phenyl)pyridin-3-yl)-1H-thieno[3,2-c]pyrazol-3-yl)isobutyramide], the melting point was > 240 °C. Besides, the IC50 at GSK-3β worked out at 158 ± 8.9 nM.

In turn, `COc1ccccc1-c1ccncc1-c1cc2[nH]nc(NC(=O)C(C)C)c2s1` [Compound 18e, N-(5-(4-(2-Methoxyphenyl)pyridin-3-yl)-1H-thieno[3,2-c]pyrazol-3-yl)isobutyramide] gave a melting point of 213 to 215 °C. Besides, the IC50 on GSK-3β is 64 ± 2.7 nM.

For `[Cl-].[Li+]` [LiCl, reference compound], the “p-GSK-3β/GAPDH ratio (Ser9)” value in series [1] was 0.60.
